Results as given in patent US7737143B2, “Substituted pyrazines as kinase inhibitors” (YM Biosciences Australia Pty Ltd, priority 2003, dated 2010).

Assays:
Format in all cases: biochemical
[1] = target: T1, human JAK2 (Homo sapiens, UniProt O60674); test: JAK kinase assay (ELISA or Alphascreen), Jak2; settings: standard conditions, read-out: Jak2 inhibition of enzyme activity
T1 construct: The kinase domain of human JAK2 was amplified from U937mRNA; His tag (pFastBac HTc vector; nickel chelate purification) (N); made in house; host or cells: baculovirus; Sf9 for virus, High Five insect cells for production
T1 sequence (O60674 849-1124 limits assumed): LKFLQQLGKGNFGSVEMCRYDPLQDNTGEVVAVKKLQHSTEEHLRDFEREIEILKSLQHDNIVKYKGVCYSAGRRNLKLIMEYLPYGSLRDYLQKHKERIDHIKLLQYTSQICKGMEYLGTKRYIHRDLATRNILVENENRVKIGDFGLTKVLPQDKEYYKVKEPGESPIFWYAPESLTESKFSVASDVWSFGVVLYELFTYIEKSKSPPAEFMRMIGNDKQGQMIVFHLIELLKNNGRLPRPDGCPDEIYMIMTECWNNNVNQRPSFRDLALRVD
Source text: The kinase domain of human JAK2 was amplified from U937mRNA using the polymerase chain reaction with the following primers: […]
JAK2 PCR products were cloned into the pFastBac HTc expression vector (Gibco) via the Sal I and Not I sites. The JAK2 plasmid was then transformed into competent DHL10Bac cells (Gibco), and the recombinant baculovirus produced prepared for transfection into Sf9 insect cells.
(§1) Baculovirus preparations from each of the JAK family members were infected into five litres of High Five cells (Invitrogen) grown in High Five serum free medium (Invitrogen) to a cell density of approximately 1-2×10^6 cells/ml. Cells are infected with virus at a MOI of 0.8-3.0. Cells were harvested and lysed. JAK kinase domains were purified by affinity chromatography on a Probond (Invitrogen) nickel chelate affinity column.
(§2) Kinase assays were performed either in a 96 well capture-based ELISA assay or in 384 well Optiplates (Packard) using an Alphascreen Protein Tyrosine Kinase kit. In either case using approximately 15 μg of affinity purified PTK domain in the presence of 50 mM HEPES, pH 7.5, 10 mM MgCl2 150 mM NaCl and 10 μM-1 mM ATP. The biotinylated substrate biotin-EGPWLEEEEEAYGWMDF-NH2 (final concentration 5 μM) was used as substrate. In the ELISA assay tyrosine phosphorylation was quantitated following transfer to an avidin coated ELISA plate using peroxidase-linked anti-phospho-tyrosine antibody PY20. In the Alphascreen assay, Alphascreen phosphotyrosine acceptor beads followed by streptavidin donor beads were added under subdued light. The ELISA plates were read on a BMG Fluorostar, the Alphascreen plates were read on a Packard Fusion Alpha. Inhibitors were added to the assays fifteen minutes prior to the addition of ATP. Inhibitors were added in aqueous DMSO, with DMSO concentrations never exceeding 1%.

[2] = target: T2, human JAK3 (Homo sapiens, UniProt P52333); test: JAK kinase assay (ELISA or Alphascreen), Jak3; settings: standard conditions, read-out: Jak3 inhibition of enzyme activity
T2 construct: The kinase domain of human JAK3 was amplified from U937mRNA; His tag (pFastBac HTb vector; nickel chelate purification) (N); made in house; host or cells: baculovirus; Sf9 for virus, High Five insect cells for production
T2 sequence (P52333 822-1111 limits assumed): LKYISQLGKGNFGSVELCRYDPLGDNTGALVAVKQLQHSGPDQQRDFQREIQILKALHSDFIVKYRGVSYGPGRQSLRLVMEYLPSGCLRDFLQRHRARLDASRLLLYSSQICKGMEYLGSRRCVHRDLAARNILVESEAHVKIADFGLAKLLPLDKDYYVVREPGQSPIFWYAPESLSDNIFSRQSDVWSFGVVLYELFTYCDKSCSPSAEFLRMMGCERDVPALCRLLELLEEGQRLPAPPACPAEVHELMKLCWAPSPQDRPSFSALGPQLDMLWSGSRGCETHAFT
Source text: The kinase domain of human JAK3 was amplified from U937mRNA using the polymerase chain reaction with the following primers: […]
JAK3 PCR products were cloned into the pFastBac HTb expression vector (Gibco) via the Xho I and Kpn I sites. The JAK3 plasmid was then transformed into competent DH10Bac cells (Gibco), and the recombinant baculovirus produced prepared for transfection into Sf9 insect cells.
as §1, §2

[3] = target: T3, zap70 (Homo sapiens, UniProt P43403); test: Kinase assay (ELISA or Alphascreen), zap70; settings: standard conditions, read-out: zap70 inhibition of enzyme activity
T3 sequence (P43403 338-600 limits assumed): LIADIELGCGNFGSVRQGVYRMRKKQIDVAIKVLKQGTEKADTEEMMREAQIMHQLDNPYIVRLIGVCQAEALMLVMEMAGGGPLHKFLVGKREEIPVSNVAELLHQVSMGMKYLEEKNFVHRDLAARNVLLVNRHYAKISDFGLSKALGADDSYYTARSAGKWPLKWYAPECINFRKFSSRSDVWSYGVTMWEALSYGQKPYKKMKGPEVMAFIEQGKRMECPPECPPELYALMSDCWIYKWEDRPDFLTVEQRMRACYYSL
Experimental: as §2

[4] = target: kdr (Homo sapiens, UniProt P35968); test: Kinase assay (ELISA or Alphascreen), kdr; settings: standard conditions, read-out: kdr inhibition of enzyme activity
Sequence of kdr (P35968 834-1162 limits assumed, species assumed): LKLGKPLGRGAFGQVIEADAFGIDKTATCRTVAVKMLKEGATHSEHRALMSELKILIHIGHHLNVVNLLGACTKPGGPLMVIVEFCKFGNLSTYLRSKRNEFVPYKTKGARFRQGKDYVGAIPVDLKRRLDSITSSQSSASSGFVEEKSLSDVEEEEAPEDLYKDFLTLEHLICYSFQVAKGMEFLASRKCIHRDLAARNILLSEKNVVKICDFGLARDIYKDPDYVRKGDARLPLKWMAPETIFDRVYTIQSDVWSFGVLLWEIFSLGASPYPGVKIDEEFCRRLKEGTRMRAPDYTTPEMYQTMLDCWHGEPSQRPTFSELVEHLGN
Experimental: as §2

[5] = target: T4, fms (Homo sapiens, UniProt P07333); test: Kinase assay (ELISA or Alphascreen), fms; settings: standard conditions, read-out: fms inhibition of enzyme activity
T4 sequence (P07333 582-910 limits assumed): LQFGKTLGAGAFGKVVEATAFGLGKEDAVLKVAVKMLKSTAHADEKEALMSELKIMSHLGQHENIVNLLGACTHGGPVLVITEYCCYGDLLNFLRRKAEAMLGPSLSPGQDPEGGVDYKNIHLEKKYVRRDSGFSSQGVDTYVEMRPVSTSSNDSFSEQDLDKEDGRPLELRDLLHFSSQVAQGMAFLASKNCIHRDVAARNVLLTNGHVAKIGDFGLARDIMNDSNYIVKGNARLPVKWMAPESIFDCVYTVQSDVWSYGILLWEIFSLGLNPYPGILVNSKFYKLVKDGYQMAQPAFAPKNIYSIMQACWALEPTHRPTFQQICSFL
Experimental: as §2

[6] = target: hck (Homo sapiens, UniProt P08631); test: Kinase assay (ELISA or Alphascreen), hck; settings: standard conditions, read-out: hck inhibition of enzyme activity
Sequence of hck (P08631 262-515 limits assumed, species assumed): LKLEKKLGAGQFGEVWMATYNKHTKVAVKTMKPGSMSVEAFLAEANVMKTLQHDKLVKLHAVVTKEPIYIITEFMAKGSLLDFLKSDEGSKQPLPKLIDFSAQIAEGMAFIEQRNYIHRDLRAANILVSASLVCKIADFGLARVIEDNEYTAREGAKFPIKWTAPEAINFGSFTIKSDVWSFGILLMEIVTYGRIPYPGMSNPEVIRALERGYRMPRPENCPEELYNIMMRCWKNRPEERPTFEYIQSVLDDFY
Experimental: as §2

[7] = target: T5, abl (Homo sapiens, UniProt P00519); test: Kinase assay (ELISA or Alphascreen), abl; settings: standard conditions, read-out: abl inhibition of enzyme activity
T5 sequence (P00519 242-493 limits assumed): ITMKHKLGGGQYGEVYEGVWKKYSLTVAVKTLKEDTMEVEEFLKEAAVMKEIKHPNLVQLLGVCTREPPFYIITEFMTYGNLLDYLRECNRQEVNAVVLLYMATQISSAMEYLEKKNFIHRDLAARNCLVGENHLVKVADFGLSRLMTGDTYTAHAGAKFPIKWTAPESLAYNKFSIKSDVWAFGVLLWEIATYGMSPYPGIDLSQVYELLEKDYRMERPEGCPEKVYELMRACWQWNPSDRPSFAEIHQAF
Experimental: as §2

[8] = target: tie2 (Homo sapiens, UniProt Q02763); test: Kinase assay (ELISA or Alphascreen), tie2; settings: standard conditions, read-out: tie2 inhibition of enzyme activity
Sequence of tie2 (Q02763 824-1096 limits assumed, species assumed): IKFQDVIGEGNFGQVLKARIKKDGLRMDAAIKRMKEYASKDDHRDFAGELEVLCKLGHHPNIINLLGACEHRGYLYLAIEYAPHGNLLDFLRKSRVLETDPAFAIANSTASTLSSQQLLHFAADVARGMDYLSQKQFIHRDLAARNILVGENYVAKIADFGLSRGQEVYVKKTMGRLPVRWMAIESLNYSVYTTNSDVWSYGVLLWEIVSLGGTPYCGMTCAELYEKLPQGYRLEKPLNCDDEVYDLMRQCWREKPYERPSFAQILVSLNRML
Experimental: as §2

[9] = target: btk (Homo sapiens, UniProt Q06187); test: Kinase assay (ELISA or Alphascreen), btk; settings: standard conditions, read-out: btk inhibition of enzyme activity
Sequence of btk (Q06187 402-655 limits assumed, species assumed): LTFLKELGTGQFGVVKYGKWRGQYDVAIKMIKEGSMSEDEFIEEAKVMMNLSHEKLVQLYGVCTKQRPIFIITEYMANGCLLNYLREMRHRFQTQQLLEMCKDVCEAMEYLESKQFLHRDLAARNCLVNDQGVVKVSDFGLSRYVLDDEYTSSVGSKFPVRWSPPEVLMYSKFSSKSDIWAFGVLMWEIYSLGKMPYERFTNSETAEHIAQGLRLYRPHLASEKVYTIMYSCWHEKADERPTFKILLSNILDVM
Experimental: as §2

Compound	inhibition at 20 µM [1] [%]	inhibition at 20 µM [2] [%]	inhibition at 20 µM [3] [%]	inhibition at 20 µM [4] [%]	inhibition at 20 µM [5] [%]	inhibition at 20 µM [6] [%]	inhibition at 20 µM [7] [%]	inhibition at 20 µM [8] [%]	inhibition at 20 µM [9] [%]
CC(Nc1cncc(-n2cnc3cc(C#N)ccc32)n1)c1ccc(F)c(Cl)c1 (stereo not shown)	≥ 50	< 50				≥ 50			
CC(Nc1cncc(-n2cnc3ccc(C#N)cc32)n1)c1cccnc1 (stereo not shown)	< 50	< 50					≥ 50		
COc1cc(-c2cncc(-n3cnc4ccccc43)n2)ccc1O	< 50	< 50					≥ 50		
CC[C@H](Nc1cncc(-n2cnc3ccccc32)n1)c1ccccc1	≥ 50	< 50	≥ 50				≥ 50		
Cc1ncc(-n2cnc3ccc(C#N)cc32)nc1N[C@@H](C)c1cccc(F)c1	≥ 50	≥ 50						≥ 50	
CC(Nc1cncc(-n2cnc3cc(C#N)ccc32)n1)c1cccnc1 (stereo not shown)	≥ 50	≥ 50				≥ 50			
C[C@H](Nc1cncc(-n2cnc3ccc(CO)cc32)n1)c1ccc(F)cc1	≥ 50	< 50				≥ 50			≥ 50
CC(Nc1cncc(N2CNc3cc(CN4CCN(C)CC4)ccc32)n1)c1ccc(F)cc1 (stereo not shown)	< 50	< 50		≥ 50					
CC(Nc1cncc(-n2cnc3ccc(C#N)cc32)n1)c1cccc(F)c1 (stereo not shown)	≥ 50	≥ 50				≥ 50			
CCNC(=O)Nc1ccc2c(c1)ncn2-c1cncc(N[C@@H](C)c2ccccc2)n1	≥ 50	< 50			≥ 50				
C[C@H](Nc1cncc(-n2cnc3ccc(CN(CCO)CCO)cc32)n1)c1ccc(F)cc1	≥ 50	< 50				≥ 50			
C[C@H](Nc1cncc(-n2cnc3cc(C(=O)NCCCCN4CCOCC4)ccc32)n1)c1ccccc1	≥ 50	< 50	≥ 50				≥ 50		
CC[C@H](Nc1cncc(-n2cnc3cc(C#N)ccc32)n1)c1ccccc1	≥ 50	≥ 50		≥ 50				≥ 50	
C[C@H](Nc1cncc(-n2cnc3cc(NC(=O)N4CCN(C)CC4)ccc32)n1)c1ccccc1	≥ 50	< 50	≥ 50	≥ 50		≥ 50	≥ 50		
CC1CC(Nc2cncc(-n3cnc4cc(C#N)ccc43)n2)c2ccccc21 (stereo not shown)	≥ 50	≥ 50			≥ 50				
CNCCN(C)Cc1ccc2ncn(-c3cncc(NC(C)c4ccc(F)cc4)n3)c2c1 (stereo not shown)	< 50	< 50		≥ 50					

Other lines, results leading:

inhibition at 20 µM [1] [%]	inhibition at 20 µM [2] [%]	inhibition at 20 µM [3] [%]	inhibition at 20 µM [4] [%]	inhibition at 20 µM [5] [%]	inhibition at 20 µM [6] [%]	inhibition at 20 µM [7] [%]	inhibition at 20 µM [8] [%]	inhibition at 20 µM [9] [%]	Compound
≥ 50	≥ 50	≥ 50	≥ 50						CO/C=C\N(C)CCCCNC(=O)c1ccc2ncn(-c3cncc(N[C@@H](C)c4ccccc4)n3)c2c1
≥ 50	≥ 50	≥ 50							Cc1ccc([C@H](C)Nc2cncc(-n3cnc4ccc(C#N)cc43)n2)cc1
≥ 50	≥ 50			≥ 50					N#Cc1ccc2c(c1)ncn2-c1cncc(N[C@H]2CCCc3ccccc32)n1
< 50	< 50	≥ 50			≥ 50				C[C@H](Nc1cncc(-n2cnc3cc(NC(=O)c4ccc(CN5CCN(C)CC5)cc4)ccc32)n1)c1ccccc1
≥ 50	≥ 50			≥ 50					CC(Nc1cncc(-n2cnc3cc(C#N)ccc32)n1)c1ccccc1F (stereo not shown)
≥ 50	< 50						≥ 50		C[C@H](Nc1cncc(-n2cnc3ccc(CN4CCCC4)cc32)n1)c1ccc(F)cc1
≥ 50	≥ 50				≥ 50				CC(Nc1cncc(-n2cnc3ccc(C#N)cc32)n1)c1cc(F)cc(F)c1 (stereo not shown)
≥ 50	< 50	≥ 50							Nc1ccc(-c2cncc(-n3cnc4ccccc43)n2)cc1
< 50	< 50				≥ 50				COc1ccc2c(c1)CCC2Nc1cncc(-n2cnc3ccc(C#N)cc32)n1 (stereo not shown)
< 50	< 50	≥ 50							C[C@H](Nc1cncc(-n2cnc3cc(-c4nn[nH]n4)ccc32)n1)c1ccc(F)cc1
≥ 50	≥ 50	≥ 50							C[C@H](Nc1cncc(-n2cnc3ccccc32)n1)c1ccc(F)cc1
< 50	≥ 50						≥ 50		C[C@H](Nc1cncc(-n2cnc3ccc(CN4CCNCC4)cc32)n1)c1ccc(F)cc1
≥ 50	≥ 50		≥ 50						C[C@@H](c1ccccc1)N(C)c1cncc(-n2cnc3ccc(C#N)cc32)n1
< 50	< 50			≥ 50					CC(Nc1cncc(-n2cnc3cc(C#N)ccc32)n1)c1cccc2ccccc12 (stereo not shown)
≥ 50	≥ 50						≥ 50		N#Cc1ccc2c(c1)ncn2-c1cncc(NC2CCc3cc(F)ccc32)n1 (stereo not shown)
< 50	< 50		≥ 50						COc1cccc([C@H](C)Nc2cncc(-n3cnc4ccccc43)n2)c1
≥ 50	≥ 50						≥ 50		N#Cc1ccc2ncn(-c3cncc(N[C@H]4CCc5ccccc54)n3)c2c1
≥ 50	≥ 50		≥ 50				≥ 50		N#Cc1ccc2c(c1)ncn2-c1cncc(N[C@H]2CCc3ccccc32)n1
≥ 50	< 50				≥ 50				C[C@H](Nc1cncc(-n2cnc3ccc(CN4CCOCC4)cc32)n1)c1ccc(F)cc1
